# Reference: PubChem BioAssay (NCI)
#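 96-well plates; 48 h exposure; 5 concentrations. Endpoints by linear interpolation between flanking doses. Not reached: highest tested concentration assigned. Definition used: TGI = concentration required for complete inhibition of growth.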
# Assays:
# Assay in all cases: growth of human tumour cells (NCI), 48 h
# A498 renal = system: A498 renal
# CCRF-CEM leukemia = system: CCRF-CEM leukemia
# EKVX NSCLC = system: EKVX NSCLC
# HCT-15 colon = system: HCT-15 colon
# HOP-92 NSCLC = system: HOP-92 NSCLC
# HT29 colon = system: HT29 colon
# MOLT-4 leukemia = system: MOLT-4 leukemia
# NCI-H23 lung = system: NCI-H23 lung
# NCI-H460 lung = system: NCI-H460 lung
# OVCAR-3 ovarian = system: OVCAR-3 ovarian
# OVCAR-4 ovarian = system: OVCAR-4 ovarian
# RPMI-8226 leukemia = system: RPMI-8226 leukemia
# SK-MEL-28 melanoma = system: SK-MEL-28 melanoma
# SK-MEL-5 melanoma = system: SK-MEL-5 melanoma
# SK-OV-3 ovarian = system: SK-OV-3 ovarian
# SNB-19 CNS = system: SNB-19 CNS
# SNB-75 CNS = system: SNB-75 CNS
# SW-620 colon = system: SW-620 colon
# U251 CNS = system: U251 CNS
# UACC-257 melanoma = system: UACC-257 melanoma
Structure (SMILES),TGI (A498 renal),TGI (CCRF-CEM leukemia),TGI (EKVX NSCLC),TGI (HCT-15 colon),TGI (HOP-92 NSCLC),TGI (HT29 colon),TGI (MOLT-4 leukemia),TGI (NCI-H23 lung),TGI (NCI-H460 lung),TGI (OVCAR-3 ovarian),TGI (OVCAR-4 ovarian),TGI (RPMI-8226 leukemia),TGI (SK-MEL-28 melanoma),TGI (SK-MEL-5 melanoma),TGI (SK-OV-3 ovarian),TGI (SNB-19 CNS),TGI (SNB-75 CNS),TGI (SW-620 colon),TGI (U251 CNS),TGI (UACC-257 melanoma)
COc1nc(NC2OC(CO)C(O)C(O)C2O)c(N)c(=O)[nH]1 (stereo not given),> 100 µM,> 100 µM,> 100 µM,> 100 µM,> 100 µM,> 100 µM,> 100 µM,> 100 µM,> 100 µM,> 100 µM,> 100 µM,> 100 µM,> 100 µM,> 100 µM,> 100 µM,> 100 µM,> 100 µM,> 100 µM,> 100 µM,> 100 µM
O=C1CCC2COc3ccc(O)c1c32 (stereo not given),> 100 µM,> 100 µM,> 100 µM,> 100 µM,> 100 µM,> 100 µM,> 100 µM,> 100 µM,> 100 µM,> 100 µM,> 100 µM,> 100 µM,> 100 µM,> 100 µM,> 100 µM,95.9 µM,> 100 µM,> 100 µM,> 100 µM,> 100 µM
COC(=O)Cc1c(C2C(CC(=O)OC)c3ccccc3N2C2OC(CO)C(O)C(O)C2O)[nH]c2ccccc12 (stereo not given),> 100 µM,> 100 µM,> 100 µM,> 100 µM,> 100 µM,> 100 µM,> 100 µM,> 100 µM,> 100 µM,> 100 µM,> 100 µM,> 100 µM,> 100 µM,> 100 µM,> 100 µM,> 100 µM,> 100 µM,> 100 µM,> 100 µM,> 100 µM
